Data set [1] concerns MNT-1. The data set is described as follows: Anti-melanogenic activity against human MNT-1 cells cocultured with 24 hrs compound pretreated human HaCaT cells supernatant assessed as inhibition of LIF mRNA expression at 20 uM and measured after 48 hrs by qRT-PCR analysis. Type of data set: functional, cell-based. The settings on record: time 72.0 hrs. For orientation: Quantitative PCR measures a nucleic acid by following its amplification.

Data set [2] has as its system MNT-1. Nature of the data set: Anti-melanogenic activity against human MNT-1 cells cocultured with 24 hrs compound pretreated human HaCaT cells supernatant assessed as inhibition of LIF protein expression at 20 uM and measured after 48 hrs by Western blot analysis. Type of data set: functional, cell-based. Particulars: time 72.0 hrs. (A western blot detects proteins with antibodies after separation by electrophoresis.)

Data set [3] has as its system MNT-1. The data set is described as follows: Anti-melanogenic activity against human MNT-1 cells cocultured with 24 hrs compound pretreated human HaCaT cells supernatant assessed as inhibition of SCF mRNA expression at 20 uM and measured after 48 hrs by qRT-PCR analysis. Type of data set: functional, cell-based. The settings on record: time 72.0 hrs.
Data set [4] deals with MNT-1. Nature of the data set: Anti-melanogenic activity against human MNT-1 cells cocultured with 24 hrs compound pretreated human fibroblast cells supernatant assessed as decrease in melanin content at 20 uM and measured after 48 hrs by Fontana-Masson staining based microscopic analysis. Type of data set: functional, cell-based. Particulars: time 72.0 hrs.
Data set [5] deals with MNT-1. The data set is described as follows: Anti-melanogenic activity against human MNT-1 cells cocultured with 24 hrs compound pretreated human fibroblast cells supernatant assessed as inhibition of SCF mRNA expression at 20 uM and measured after 48 hrs by qRT-PCR analysis. It counts as functional, cell-based. The settings on record: time 72.0 hrs.
For data set [6], the system named is MNT-1. The data set is described as follows: Anti-melanogenic activity against human MNT-1 cells cocultured with 24 hrs compound pretreated human HaCaT cells supernatant assessed as inhibition of SCF protein expression at 20 uM and measured after 48 hrs by Western blot analysis. It counts as functional, cell-based. The settings on record: time 72.0 hrs.
The subject of data set [7] is MNT-1. The data set is described as follows: Anti-melanogenic activity against human MNT-1 cells cocultured with 24 hrs compound pretreated human HaCaT cells supernatant assessed as decrease in melanin content at 20 uM and measured after 48 hrs by Fontana-Masson staining based microscopic analysis. Particulars: time 72.0 hrs. It counts as functional, cell-based.
Data set [8] relates to MNT-1. Nature of the data set: Anti-melanogenic activity against human MNT-1 cells cocultured with 24 hrs compound pretreated human fibroblast cells supernatant assessed as inhibition of SCF protein expression at 20 uM and measured after 48 hrs by Western blot analysis. It counts as functional, cell-based. Particulars: time 72.0 hrs.
In data set [9] the test system is MNT-1. The data set is described as follows: Anti-melanogenic activity against human MNT-1 cells cocultured with 24 hrs compound pretreated human fibroblast cells supernatant assessed as inhibition of LIF mRNA expression at 20 uM and measured after 48 hrs by qRT-PCR analysis. Type of data set: functional, cell-based. The settings on record: time 72.0 hrs.
In data set [10] the test system is MNT-1. Nature of the data set: Anti-melanogenic activity against human MNT-1 cells cocultured with 24 hrs compound pretreated human fibroblast cells supernatant assessed as inhibition of LIF protein expression at 20 uM and measured after 48 hrs by Western blot analysis. It counts as functional, cell-based. Particulars: time 72.0 hrs.
Data set [11] relates to B16-F10. The data set is described as follows: Anti-melanogenic activity against mouse B16-F10 cells at 200 nM. It counts as functional, cell-based.
Data set [12] relates to B16-F10. The data set is described as follows: Anti-melanogenic activity against mouse B16-F10 cells assessed as decrease in TRP2 protein level at 25 to 100 nM measured after 48 hrs by Western blot analysis. It counts as functional, cell-based. The settings on record: dose 25-100 nM.
Data set [13] is described as follows: Cytotoxicity against mouse Melan-a cells assessed as reduction in cell viability upto 10 uM measured after 48 to 72 hrs by MTT assay. Type of data set: toxicity, cell-based. Particulars: time 48-72 hrs. Background: Tetrazolium dyes change colour on reduction, which living cells bring about.
Data set [14] concerns B16-F10. Nature of the data set: Inhibition of MAPK signaling pathway in mouse B16-F10 cells assessed as decrease in phosphorylated ERK at 25 to 100 nM for 48 hrs by Western blot analysis. Type of data set: cell-based. Particulars: dose 25-100 nM.
Data set [15] deals with HaCaT. Nature of the data set: Cytotoxicity against human HaCaT cells assessed as reduction in cell viability upto 10 uM measured after 48 to 72 hrs by MTT assay. Type of data set: toxicity, cell-based. Particulars: time 48-72 hrs.
The subject of data set [16] is B16-F10. Nature of the data set: Cytotoxicity against mouse B16-F10 cells assessed as reduction in cell viability upto 10 uM measured after 48 to 72 hrs by MTT assay. It counts as toxicity, cell-based. Particulars: b16-f10, 10 µM, time 48-72 hrs.
Data set [17] relates to B16-F10. The data set is described as follows: Anti-melanogenic activity against mouse B16-F10 cells assessed as decrease in […] at 25 to 100 nM incubated for 48 hrs. The settings on record: dose 25-100 nM. Type of data set: functional, cell-based.
Data set [18] relates to B16-F10. The data set is described as follows: Anti-melanogenic activity against mouse B16-F10 cells assessed as decrease in TYR protein level at 25 to 100 nM measured after 48 hrs by Western blot analysis. Type of data set: functional, cell-based. Particulars: dose 25-100 nM.
The subject of data set [19] is HaCaT. The data set is described as follows: Anti-melanogenic activity against UVB-induced human HaCaT cells assessed as decrease in SCF protein level at 10 uM incubated for 24 hrs by Western blot analysis. Type of data set: functional, cell-based.
Data set [20] concerns HaCaT. The data set is described as follows: Anti-melanogenic activity against UVB-induced human HaCaT cells assessed as decrease in LIF protein level at 10 uM incubated for 24 hrs by Western blot analysis. It counts as functional, cell-based.
The test system of data set [21] is MNT-1. The data set is described as follows: Anti-melanogenic activity against UVB-induced human MNT-1 cells cocultured with 24 hrs human HaCaT cells supernatant assessed as decrease in melanin content at 10 uM incubated for 48 hrs by Fontana-Masson staining based microscopic analysis. Type of data set: functional, cell-based. The settings on record: time 72.0 hrs.

The test system of data set [22] is MNT-1. Nature of the data set: Cytotoxicity against human MNT-1 cells assessed as reduction in cell viability upto 10 uM measured after 48 to 72 hrs by MTT assay. Particulars: mnt-1, 10 µM, time 48-72 hrs. Type of data set: toxicity, cell-based.
For data set [23], the target named is Mushroom tyrosinase (Agaricus bisporus, UniProt O42713+Q00024+C7FF04+C7FF05). The data set is described as follows: Inhibition of mushroom tyrosinase using L-DOPA as substrate preincubated with substrate for 10 mins followed by addition of enzyme and measured for 10 mins.
The subject of data set [24] is MNT-1. Nature of the data set: Anti-melanogenic activity against UVB-induced human MNT-1 cells cocultured with 24 hrs human fibroblast cells supernatant assessed as decrease in melanin content at 10 uM incubated for 48 hrs by Fontana-Masson staining based microscopic analysis. Type of data set: functional, cell-based. The settings on record: time 72.0 hrs.
Data set [25] deals with B16-F10. The data set is described as follows: Anti-melanogenic activity against mouse B16-F10 cells assessed as decrease in TRP1 protein level at 25 to 100 nM measured after 48 hrs by Western blot analysis. Type of data set: functional, cell-based. Particulars: dose 25-100 nM.
Data set [26] relates to Melan-a. Nature of the data set: Anti-melanogenic activity against mouse Melan-a cells assessed as decrease in alpha-MSH-induced Tyr activity at 0.01 to 10 uM incubated for 48 hrs. It counts as functional, cell-based. The settings on record: dose 0.01-10 µM.
Data set [27] concerns B16-F10. The data set is described as follows: Anti-melanogenic activity against mouse B16-F10 cells assessed as decrease in MITF protein level at 25 to 100 nM measured after 48 hrs by Western blot analysis. It counts as functional, cell-based. Particulars: dose 25-100 nM.
Data set [28] has as its system Fibroblast. Nature of the data set: Cytotoxicity against human Fibroblast assessed as reduction in cell viability upto 10 uM measured after 48 to 72 hrs by MTT assay. Type of data set: toxicity, cell-based. The settings on record: time 48-72 hrs.
In data set [29] the test system is HaCaT. Nature of the data set: Anti-melanogenic activity against UVB-induced human HaCaT cells assessed as inhibition of LIF mRNA expression at 10 uM incubated for 24 hrs by qRT-PCR analysis. Type of data set: functional, cell-based.
Data set [30] deals with B16-F10. Nature of the data set: Anti-melanogenic activity against mouse B16-F10 cells assessed as decrease in […] at 25 to 100 nM incubated for 48 hrs by RBFP based fluorescence microscope analysis. The settings on record: dose 25-100 nM. Type of data set: functional, cell-based.
Data set [31] deals with Fibroblast. The data set is described as follows: Anti-melanogenic activity against UVB-induced human fibroblast cells assessed as inhibition of LIF mRNA expression at 10 uM incubated for 24 hrs by qRT-PCR analysis. Type of data set: functional, cell-based.
For data set [32], the system named is Melan-a. Nature of the data set: Anti-melanogenic activity against mouse Melan-a cells assessed as alpha-MSH-induced decrease in Tyr activity at 0.01 to 10 uM incubated for 48 hrs by RBFP based fluorescence microscope analysis. Type of data set: functional, cell-based. The settings on record: dose 0.01-10 µM.
Data set [33] concerns Fibroblast. The data set is described as follows: Anti-melanogenic activity against UVB-induced human fibroblast cells assessed as decrease in SCF protein level at 10 uM incubated for 24 hrs by Western blot analysis. Type of data set: functional, cell-based.
Data set [34] relates to B16-F10. Nature of the data set: Inhibition of MAPK signaling pathway in mouse B16-F10 cells assessed as decrease in phosphorylated JNK at 25 to 100 nM for 48 hrs by Western blot analysis. Type of data set: cell-based. Particulars: dose 25-100 nM.
The subject of data set [35] is B16-F10. Nature of the data set: Anti-melanogenic activity against mouse B16-F10 cells assessed as decrease in RAB27A protein level at 25 to 100 nM measured after 48 hrs by Western blot analysis. It counts as functional, cell-based. The settings on record: dose 25-100 nM.
The subject of data set [36] is Fibroblast. The data set is described as follows: Anti-melanogenic activity against UVB-induced human fibroblast cells assessed as inhibition of SCF mRNA expression at 10 uM incubated for 24 hrs by qRT-PCR analysis. Type of data set: functional, cell-based.
Data set [37] concerns B16-F10. The data set is described as follows: Anti-melanogenic activity against mouse B16-F10 cells at 50 nM. Type of data set: functional, cell-based.
For data set [38], the system named is B16-F10. The data set is described as follows: Inhibition of MAPK signaling pathway in mouse B16-F10 cells assessed as decrease in phosphorylated p38 at 25 to 100 nM for 48 hrs by Western blot analysis. It counts as cell-based. The settings on record: dose 25-100 nM.
Data set [39] deals with MNT-1. Nature of the data set: Anti-melanogenic activity against human MNT-1 cells assessed as decrease in melanin content at 10 uM incubated for 48 hrs by Fontana-Masson staining based microscopic analysis. Type of data set: functional, cell-based.
Data set [40] has as its system HaCaT. Nature of the data set: Anti-melanogenic activity against UVB-induced human HaCaT cells assessed as inhibition of SCF mRNA expression at 10 uM incubated for 24 hrs by qRT-PCR analysis. Type of data set: functional, cell-based.
For data set [41], the system named is B16-F10. Nature of the data set: Anti-melanogenic activity against mouse B16-F10 cells assessed as decrease in melanin content at 25 to 100 nM incubated for 48 hrs by Fontana-Masson staining based inverted microscopic analysis. It counts as functional, cell-based. The settings on record: dose 25-100 nM.
For data set [42], the system named is Melan-a. The data set is described as follows: Anti-melanogenic activity against mouse Melan-a cells assessed as decrease in alpha-MSH-induced melanin content at 0.01 to 10 uM incubated for 48 hrs by Fontana-Masson staining based inverted microscopic analysis. Type of data set: functional, cell-based. The settings on record: dose 0.01-10 µM.
Data set [43] deals with Fibroblast. The data set is described as follows: Anti-melanogenic activity against UVB-induced human fibroblast cells assessed as decrease in LIF protein level at 10 uM incubated for 24 hrs by Western blot analysis. Type of data set: functional, cell-based.
Data set [44] is filed under the species Danio rerio. Nature of the data set: Inhibition of melanogenesis in zebra fish embryos assessed as decrease in melanin granule density at 10 to 50 uM measured upto 6 days by inverted microscope analysis. Type of data set: functional. Particulars: dose 10-50 µM, time <= 6.0 day.

Consider four compounds from ChEMBL document CHEMBL5120787, “Selaginellin Inhibits Melanogenesis via the MAPK Signaling Pathway” (J Nat Prod, 2022).

Active and inactive are the calls of the source. The rule behind the calls is not given here.

In the case of `COc1ccc(-c2cc(=O)c3c(OC)c(OC)c(OC)c(OC)c3o2)cc1OC`, the outcome in data set [1], in data set [2], in data set [3], in data set [4], in [5] and in [6] was Active. The result in [7], in data set [8], in [9] and in [10] was Active.

Consider `O=c1cc(CO)occ1O`, for which, in [11], the result was Active.

What is called IC50 is the concentration needed to halve the response being measured. In the case of `O=C1C=CC(=C(c2ccc(O)cc2)c2c(-c3ccc(O)cc3)ccc(CO)c2C#Cc2ccc(O)cc2)C=C1`, the outcome in data set [12], in data set [17], in [18], in data set [19], in data set [20] and in [21] was Active. In addition, the outcome in [24], in data set [25], in [26], in data set [27], in [29] and in data set [30] was Active. The result in data set [31], in data set [32], in data set [33], in data set [35], in data set [36] and in data set [37] was Active. Also, the outcome in data set [39], in data set [40], in [41], in data set [42] and in data set [43] was Active. The Activity entry in data set [13], in data set [15], in data set [16], in data set [22] and in data set [28] was “Non-Toxic” each time. Also, the inhibition entry in [14], in data set [34] and in [38] was “Active” throughout. The compound further yielded an IC50 in data set [23] of 9.24 µM.

For `NC(=S)Nc1ccccc1`, the inhibition result in data set [44] was “Active”.
